Structures are written as SMILES. Values joined by “and” are separate entries in the source; they are usually repeats but may differ in a detail not shown here. Equal entries are not always repeated. Toxic doses and inconclusive results are not listed.

The source of these data is PubChem BioAssay AID248 (DTP/NCI, 2004).

This assay relates to L1210 leukemia ip in BDF1 mice, survival T/C. Description: NCI In Vivo Anticancer Drug Screen. Data for tumor model L1210 Leukemia (intraperitoneal) in B6D2F1 (BDF1) mice. The settings on record: higher = longer survival. The method, boiled down:
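Antitumor effect is assessed in tumor-bearing animals. Survival in the compound arm is compared with a vehicle-dosed control arm and expressed as their quotient.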

With `CC(=O)OCC(OC(C)=O)C(OC(C)=O)C(OC(C)=O)C(C#N)OC(C)=O` (stereo not given), the T/C was 106 % of control (endpoint: mean survival time, dose: 50.0 mg/kg/injection, schedule: Q01DX001 (ip), vehicle: saline); 115 % of control (endpoint: mean survival time, dose: 100.0 mg/kg/injection, schedule: Q01DX001 (ip), vehicle: other); 103 % of control (endpoint: mean survival time, dose: 100.0 mg/kg/injection, schedule: Q01DX001 (ip), vehicle: saline); 102 % of control (endpoint: mean survival time, dose: 200.0 mg/kg/injection, schedule: Q01DX001 (ip), vehicle: other); 95 % of control (endpoint: mean survival time, dose: 200.0 mg/kg/injection, schedule: Q01DX001 (ip), vehicle: saline); 96 % of control (endpoint: mean survival time, dose: 400.0 mg/kg/injection, schedule: Q01DX001 (ip), vehicle: other). Further, for the setting “endpoint: mean survival time, dose: 400.0 mg/kg/injection, schedule: Q01DX001 (ip), vehicle: saline”, the T/C is 91 % of control.

Consider `Oc1c(Cl)cc(N=Cc2ccc(N(CCCCl)CCCCl)cc2)cc1Cl`, for which the T/C is, setting by setting: (endpoint: mean survival time, dose: 100.0 mg/kg/injection, schedule: Q04DX003 (ip), vehicle: Klucel (hydroxypropylcellulose) (HPC)) 101 % of control; (endpoint: mean survival time, dose: 200.0 mg/kg/injection, schedule: Q04DX003 (ip), vehicle: Klucel (hydroxypropylcellulose) (HPC)) 101 % of control; (endpoint: mean survival time, dose: 400.0 mg/kg/injection, schedule: Q04DX003 (ip), vehicle: Klucel (hydroxypropylcellulose) (HPC)) 102 % of control.

As for `OCC1OC(n2cnc3c(=S)nc[nH]c32)C(O)C1O` (stereo not given), the T/C runs as follows: (endpoint: mean survival time, dose: 4.69 mg/kg/injection, schedule: Q01DX009 (ip), vehicle: water) 103 % of control; (endpoint: mean survival time, dose: 9.38 mg/kg/injection, schedule: Q01DX009 (ip), vehicle: water) 109 % of control; (endpoint: mean survival time, dose: 10.0 mg/kg/injection, schedule: Q01DX009 (ip), vehicle: saline) 117 % of control and 120 % of control; (endpoint: mean survival time, dose: 14.02 mg/kg/injection, schedule: Q01DX Z (ip), vehicle: carboxymethylcellulose (CMC)) 121 % of control; (endpoint: mean survival time, dose: 17.88 mg/kg/injection, schedule: Q01DX Z (ip), vehicle: carboxymethylcellulose (CMC)) 119 % of control; (endpoint: mean survival time, dose: 18.25 mg/kg/injection, schedule: Q01DX Z (ip), vehicle: carboxymethylcellulose (CMC)) 122 % of control. In addition, the T/C by setting is: (endpoint: mean survival time, dose: 18.75 mg/kg/injection, schedule: Q01DX009 (ip), vehicle: water) 117 % of control; (endpoint: mean survival time, dose: 20.0 mg/kg/injection, schedule: Q01DX010 (ip), vehicle: saline) 111 % of control; (endpoint: mean survival time, dose: 23.83 mg/kg/injection, schedule: Q01DX Z (ip), vehicle: carboxymethylcellulose (CMC)) 115 % of control; (endpoint: mean survival time, dose: 35.75 mg/kg/injection, schedule: Q01DX Z (ip), vehicle: carboxymethylcellulose (CMC)) 123 % of control; (endpoint: mean survival time, dose: 36.5 mg/kg/injection, schedule: Q01DX Z (ip), vehicle: carboxymethylcellulose (CMC)) 123 % of control; (endpoint: mean survival time, dose: 37.5 mg/kg/injection, schedule: Q01DX009 (ip), vehicle: water) 112 % of control. The T/C is, setting by setting: (endpoint: mean survival time, dose: 37.5 mg/kg/injection, schedule: Q01DX Z (ip), vehicle: carboxymethylcellulose (CMC)) 100 % of control; (endpoint: mean survival time, dose: 50.0 mg/kg/injection, schedule: Q01DX009 (ip), vehicle: saline) 121 % of control; (endpoint: mean survival time, dose: 75.0 mg/kg/injection, schedule: Q01DX015 (ip), vehicle: carboxymethylcellulose (CMC)) 151 % of control; (endpoint: mean survival time, dose: 75.0 mg/kg/injection, schedule: Q01DX Z (ip), vehicle: carboxymethylcellulose (CMC)) 113 % of control; (endpoint: mean survival time, dose: 100.0 mg/kg/injection, schedule: Q01DX005 (ip), vehicle: saline) 123 % of control; (endpoint: mean survival time, dose: 100.0 mg/kg/injection, schedule: Q01DX009 (ip), vehicle: carboxymethylcellulose (CMC)) 114 % of control. Moreover, the T/C runs as follows: (endpoint: mean survival time, dose: 107.25 mg/kg/injection, schedule: Q01DX Z (ip), vehicle: carboxymethylcellulose (CMC)) 152 % of control; (endpoint: mean survival time, dose: 120.0 mg/kg/injection, schedule: Q01DX001 (ip), vehicle: carboxymethylcellulose (CMC)) 98 % of control; (endpoint: mean survival time, dose: 125.0 mg/kg/injection, schedule: Q03HX024 (ip), vehicle: saline) 114 % of control; (endpoint: mean survival time, dose: 150.0 mg/kg/injection, schedule: Q## X Z (ip), vehicle: carboxymethylcellulose (CMC)) 107 % of control; (endpoint: mean survival time, dose: 160.0 mg/kg/injection, schedule: Q01DX010 (ip), vehicle: saline) 153 % of control and 155 % of control; (endpoint: mean survival time, dose: 180.0 mg/kg/injection, schedule: Q01DX001 (ip), vehicle: alkali diluted with saline) 108 % of control. Moreover, the T/C by setting is: (endpoint: mean survival time, dose: 180.0 mg/kg/injection, schedule: Q01DX001 (ip), vehicle: carboxymethylcellulose (CMC)) 118 % of control; (endpoint: mean survival time, dose: 188.0 mg/kg/injection, schedule: Q03HX024 (ip), vehicle: clinical formulation) 104 % of control; (endpoint: mean survival time, dose: 188.0 mg/kg/injection, schedule: Q03HX024 (ip), vehicle: saline) 115 % of control; (endpoint: mean survival time, dose: 200.0 mg/kg/injection, schedule: Q01DX009 (ip), vehicle: saline) 163 % of control and 181 % of control; (endpoint: mean survival time, dose: 270.0 mg/kg/injection, schedule: Q01DX001 (ip), vehicle: alkali diluted with saline) 119 % of control; (endpoint: mean survival time, dose: 270.0 mg/kg/injection, schedule: Q01DX001 (ip), vehicle: carboxymethylcellulose (CMC)) 114 % of control. The T/C (endpoint: mean survival time, dose: 300.0 mg/kg/injection, schedule: Q03HX024 (ip), vehicle: saline) is 95 % of control and 108 % of control; the T/C (endpoint: mean survival time, dose: 320.0 mg/kg/injection, schedule: Q01DX009 (ip), vehicle: saline) was 152 % of control and 166 % of control; the T/C (endpoint: mean survival time, dose: 600.0 mg/kg/injection, schedule: Q01DX001 (ip), vehicle: alkali diluted with saline) is 120 % of control; the T/C (endpoint: mean survival time, dose: 600.0 mg/kg/injection, schedule: Q## X Z (ip), vehicle: carboxymethylcellulose (CMC)) is 93 % of control; the T/C (endpoint: mean survival time, dose: 800.0 mg/kg/injection, schedule: Q01DX001 (ip), vehicle: saline) was 103 % of control; the T/C (endpoint: mean survival time, dose: 800.0 mg/kg/injection, schedule: Q01DX009 (ip), vehicle: carboxymethylcellulose (CMC)) was 122 % of control. In addition, the T/C by setting is: (endpoint: mean survival time, dose: 1000.0 mg/kg/injection, schedule: Q## X Z (ip), vehicle: carboxymethylcellulose (CMC)) 121 % of control; (endpoint: mean survival time, dose: 1200.0 mg/kg/injection, schedule: Q01DX001 (ip), vehicle: saline) 107 % of control; (endpoint: mean survival time, dose: 1600.0 mg/kg/injection, schedule: Q01DX001 (ip), vehicle: saline) 114 % of control; (endpoint: median survival time, dose: 50.0 mg/kg/injection, schedule: Q03HX024 (ip), vehicle: other) 155 % of control; (endpoint: median survival time, dose: 100.0 mg/kg/injection, schedule: Q03HX024 (ip), vehicle: other) 155 % of control; (endpoint: median survival time, dose: 100.0 mg/kg/injection, schedule: Q03HX024 (sc), vehicle: other) 150 % of control. The T/C (endpoint: median survival time, dose: 200.0 mg/kg/injection, schedule: Q03HX024 (ip), vehicle: other) is 155 % of control; the T/C (endpoint: median survival time, dose: 200.0 mg/kg/injection, schedule: Q03HX024 (sc), vehicle: other) was 155 % of control; the T/C (endpoint: median survival time, dose: 400.0 mg/kg/injection, schedule: Q03HX024 (ip), vehicle: other) was 111 % of control; the T/C (endpoint: median survival time, dose: 800.0 mg/kg/injection, schedule: Q01DX001 (ip), vehicle: other) was 111 % of control; the T/C (endpoint: median survival time, dose: 800.0 mg/kg/injection, schedule: Q01DX001 (sc), vehicle: other) is 111 % of control; the T/C (endpoint: median survival time, dose: 800.0 mg/kg/injection, schedule: Q04DX003 (ip), vehicle: other) is 122 % of control. The T/C was 122 % of control (endpoint: median survival time, dose: 800.0 mg/kg/injection, schedule: Q04DX003 (sc), vehicle: other); 116 % of control (endpoint: median survival time, dose: 1600.0 mg/kg/injection, schedule: Q01DX001 (ip), vehicle: other); 116 % of control (endpoint: median survival time, dose: 1600.0 mg/kg/injection, schedule: Q01DX001 (sc), vehicle: other); 100 % of control (endpoint: median survival time, dose: 3200.0 mg/kg/injection, schedule: Q01DX009 (sc), vehicle: other); 150 % of control (endpoint: median survival time, dose: 3200.0 mg/kg/injection, schedule: Q04DX003 (sc), vehicle: other).

Turning to `COC(=O)CCNS(=O)(=O)c1ccc(C)cc1`, the T/C is, setting by setting: (endpoint: mean survival time, dose: 50.0 mg/kg/injection, schedule: Q01DX001 (ip), vehicle: carboxymethylcellulose (CMC)) 92 % of control; (endpoint: mean survival time, dose: 100.0 mg/kg/injection, schedule: Q01DX001 (ip), vehicle: carboxymethylcellulose (CMC)) 94 % of control; (endpoint: mean survival time, dose: 200.0 mg/kg/injection, schedule: Q01DX001 (ip), vehicle: carboxymethylcellulose (CMC)) 94 % of control; (endpoint: mean survival time, dose: 400.0 mg/kg/injection, schedule: Q01DX001 (ip), vehicle: carboxymethylcellulose (CMC)) 92 % of control.

With `COc1ccc2c(c1O)-c1cc(O)cc3c1C(C2)NCC3` (stereo not given), the T/C is, setting by setting: (endpoint: mean survival time, dose: 0.63 mg/kg/injection, schedule: Q04DX003 (ip), vehicle: DMSO) 105 % of control; (endpoint: mean survival time, dose: 1.25 mg/kg/injection, schedule: Q04DX003 (ip), vehicle: DMSO) 96 % of control; (endpoint: mean survival time, dose: 2.5 mg/kg/injection, schedule: Q04DX003 (ip), vehicle: DMSO) 93 % of control.
